Format in all cases: cell-based, human
One assay relates to REH cells. Put plainly: trypan blue exclusion, REH. Conditions: 25 μg/ml taurolidine, versus MM6, K562, Jurkat. The protocol: FIGS. 8A and 8B depict cell viability and growth rates for REH cell line following taurolidine treatment, in terms of % trypan blue negative cells and % cell number, respectively. Cells were treated with various concentrations of taurolidine for 4 hours in AIM-V+0.01% BCS. After aliquots were collected for LDH assay, the remainder of the culture was rinsed in HBSS and resuspended in RPMI+10% BCS without taurolidine. Counts of trypan blue-negative cells (FIG. 8A), and total cell number (FIG. 8B), were recorded daily thereafter (with the measurement at Day 1 being made immediately after the 4 hour taurolidine treatment). […] Doubling times were determined under each condition, and expressed as a percentage of the rate of doubling of untreated cells. […]
In these experiments, integrity of cell membranes following taurolidine treatment was assessed by exclusion of trypan blue and by measuring the release of LDH in MM6, K-562, HL-60, and REH cells. […] A parallel aliquot of cells was lysed by three cycles of freeze/thaw and the quantity of LDH released was taken to be 100%. […]
HL-60 cells treated with 50 μl taurolidine. In these samples, LDH present in the culture medium was 8.3±2.3% of that released by completely lysed cells, compared with 2.3±0.8% measured in control cultures. […]

Assay [1] relates to Jurkat cells. Nature of the assay: trypan blue exclusion, Jurkat. To be noted: 25 μg/ml taurolidine. The procedure:
(§1) FIGS. 9A and 9B depict cell viability and growth rates for Jurkat cell line following taurolidine treatment, in terms of % trypan blue negative cells and % cell number, respectively. Cells were treated with various concentrations of taurolidine for 4 hours in AIM-V+0.01% BCS. After aliquots were collected for LDH assay, the remainder of the culture was rinsed in HBSS and resuspended in RPMI+10% BCS without taurolidine. Counts of trypan blue-negative cells (FIG. 9A), and total cell number (FIG. 9B), were recorded daily thereafter (with the measurement at Day 1 being made immediately after the 4 hour taurolidine treatment). Conditions were: no treatment (open circles); 25 μg/ml taurolidine (closed circles); 50 μg/ml taurolidine (open squares); 100 μg/ml taurolidine (closed squares); and vehicle alone (closed triangles). Doubling times were determined under each condition, and expressed as a percentage of the rate of doubling of untreated cells. These values are located to the right of the growth curves in (FIG. 9B). […]
(§2) HL-60 cells treated with 50 μl taurolidine. In these samples, LDH present in the culture medium was 8.3±2.3% of that released by completely lysed cells, compared with 2.3±0.8% measured in control cultures. […] After 4 hour treatment, cells were rinsed and returned to growth medium and monitored for viability and growth over the following 3 days. […]

The subject of assay [2] is Jurkat cells. Put plainly: growth rate after taurolidine treatment, Jurkat. The procedure:
as §1, §2

Assay [3] concerns peripheral blood monocytes. Put plainly: cell size by flow cytometry (FSC), peripheral blood monocytes. To be noted: taurolidine 6 h. The procedure:
FIG. 12A, FIG. 12B, FIG. 12C, and FIG. 12D are flow cytometric analyses depicting changes in cell morphology following taurolidine treatment. MM6 and PBMC were treated for three hours with taurolidine, and then treated and untreated control cells were processed for flow cytometry. Monocytes in PBMC samples were identified by staining with FITC-conjugated anti-CD14, and lymphocytes by FITC-conjugated anti-CD3 and PE-conjugated anti-CD19. FIG. 12A represents untreated MM6 cells; FIG. 12B represents MM6 cells treated with 50 μg/ml taurolidine; FIG. 12C represents untreated PBMC; and FIG. 12D represents PBMC treated with 75 μg/ml taurolidine. M=monocytes; L=lymphocytes.
A Becton-Dickinson FACSCalibur instrument was used for flow cytometric analysis of cells. Assessment of cell diameter (forward scatter; FCS) and granularity (side scatter; SSC).was carried out on unfixed cells. Discrimination between lymphocytes and monocytes was made possible by their characteristic differences in FSC and SSC, and confirmed by staining monocytes with FITC-labeled anti-CD14 antibodies and lymphocytes with a combination of FITC-conjugated anti-CD3 and PE-conjugated anti-CD19. After incubation with taurolidine (with or without concomitant LPS treatment), cells were rinsed twice in phosphate-buffered saline containing 0.1% bovine serum albumin (PBSA) and 1×10^6 cells were resuspended in 0.1 ml PBSA. […]
A general note: Flow cytometry measures light scatter and fluorescence of single cells or particles in a stream.

Another assay has as its system GM5387. Nature of the assay: TUNEL / propidium iodide flow cytometry, GM5387. Conditions: GM5387, 6 hours after treatment. The procedure:
In the second method, DNA fragmentation was detected via TUNEL assay according to the manufacturer's instructions. With this methodology, 2×10^6 cells were fixed with 2% paraformaldehyde, permeabilized with 0.1% Triton X-100/0.1% citrate, incubated at 37° C. with terminal deoxynucleotidyl transferase and FITC-dUTP, rinsed and analyzed by flow cytometry. Enhanced FITC signal indicates apoptosis-specific DNA fragmentation. Gavriali, et al, "Identification of programmed cell death in situ via specific labeling of nuclear DNA fragmentation," J Cell Biol 119:493 (1992). Parallel aliquots of unfixed cells were treated with PI and FITC-conjugated anti-CD14 and analyzed by flow cytometry, in order to identify cells with permeable cell membranes (since PI binds to DNA but is excluded from cells with intact plasma membranes) and also to determine the cell-specificity of the apoptotic signal.
In another study, TUNEL assays were performed on all cell lines 6 hours after cells were initially exposed to taurolidine (cells were treated for 4 hours, rinsed, and then incubated for 2 more hours before TUNEL assay was performed).
. Taurolidine and anisomycin induced apoptosis in MM6, HL-60, and Jurkat cells (Table VIII). MM6 and HL-60 cells were similarly effected, with >80% TUNEL-positive cells after 6 hours. […]
Data are percent of total cell-size events, and are expressed as mean ± […]

Consider one compound from patent US6303596A, “Use of taurolidine for treatment of leukemias” (priority 2000, dated 2001).

For `O=S1(=O)CCN(CN2CCS(=O)(=O)NC2)CN1` [taurolidine, 4,4'-methylenebis(perhydro-1,2,4-thiadiazin 1,1-dioxide)], in the assay with REH cells, the “trypan blue staining after treatment, sensitivity” value is reported as “more sensitive”. Moreover, the “trypan blue staining after treatment” value in the assay with Jurkat cells [1] is “did not show an increase in trypan blue staining”. In addition, the “sensitivity of cell growth among cell lines” value with Jurkat cells [2] is recorded as “least affected”. The “decrease in FSC” value in assay [3] is “approximately 30%”. The “DNA fragmentation (TUNEL positivity)” value in the assay with GM5387 is recorded as “did not demonstrate evidence for fragmentation of DNA”.
